pEC50, pIC50: −log10 of the molar value. Entries after “also recorded” stand apart in the source; their conditions may differ. Read-outs that look alike come from different tables or passages of the source.
Tests used:
tubulin [1] = assay: Inhibition of tubulin assembly; assay type: biochemical
NCI 60 cell line panel = assay: NCI-60 panel, overall; assay type: cell-based; conditions: Homo sapiens, read-out: GI50 against most/many tumor cell lines
[2] = Animal weight and MTD in xenograft study
[3] = tested on: MCF-7 TUBB3 (βIII-tubulin overexpressing) tumors; assay: MCF-7 TUBB3 orthotopic xenograft; assay type: in vivo, mouse; conditions: athymic female mice; 9 at 30 mg/kg two times weekly, paclitaxel 10 mg/kg/week
cellular microtubules [4] = assay: Cellular microtubule depolymerization; assay type: cell-based; conditions: 5-methyl vs 5-desmethyl compound
MDA-MB-435 = assay: Antiproliferative effects in MDA-MB-435; assay type: cell-based, human; conditions: 5-methyl vs 5-desmethyl compound
cellular microtubules [5] = conditions: read-out: Cellular microtubule depolymerization EC50; lead compounds; cited from earlier work
tubulin [6] = conditions: lead compounds, cited from earlier work
tubulin [7] = assay: Inhibition of [3H]colchicine binding to tubulin

COc1ccc(N(C)c2nc(C)nc3c(Cc4ccccc4)cn(C)c23)cc1 [Compound 5]
Fold more potent in inhibiting tubulin assembly than 5-desmethyl compound (tubulin [1]; 5 vs 4, 7 vs 6): 43 fold

COc1ccc(N(C)c2nc(Cl)nc3cnn(C)c23)cc1 [Compound 9]
GI50 (NCI 60 cell line panel): ≤ 10 nM
Animal weight change ([2]; percent weight change at day 41 over starting weight): no significant weight loss
Primary tumor growth / tumor volume [3]: decreased primary tumor growth

COc1ccc(N(C)c2nc(C)nc3ccn(C)c23)cc1 [Compound 3]
Fold more potent in cellular microtubule depolymerization than 5-desmethyl 2 (cellular microtubules [4]): 160 fold
Fold more potent in antiproliferative effects than 5-desmethyl 2 (MDA-MB-435): 22 fold
pEC50 (cellular microtubules [5]): 8.13

COc1ccc(Nc2nc(C)nc3cc[nH]c23)cc1 [Compound 1]
Inhibition of colchicine binding, % inhibition ± SD (tubulin [6]; 5 μM inhibitor): 0%
pEC50 (cellular microtubules [5]): < 5.00

CC(=O)O[C@H]1C(=O)[C@@]2(C)[C@H]([C@H](OC(=O)c3ccccc3)[C@]3(O)C[C@H](OC(=O)[C@H](O)[C@@H](NC(=O)c4ccccc4)c4ccccc4)C(C)=C1C3(C)C)[C@]1(OC(C)=O)CO[C@@H]1C[C@@H]2O [Paclitaxel, paclitaxel]
Maximally tolerated dose (MTD) ([2]; mice): 10 mg/kg/week

COc1ccc(N(C)c2nc(C)nc3cc[nH]c23)cc1 [Compound 2]
pEC50 (cellular microtubules [5]): 5.92

CSc1ccc(N(C)c2nc(Cl)nc3cnn(C)c23)cc1 [Compound 15]
Inhibition of [3H]colchicine binding, in words (tubulin [7]): equipotent to 9

COc1ccc(/C=C\c2cc(OC)c(OC)c(OC)c2)cc1O [CA-4, combretastatin A-4]
Inhibition of colchicine binding, % inhibition ± SD (tubulin [6]; 0.5 μM inhibitor): 84 ± 3%
Inhibition of colchicine binding, % inhibition ± SD (tubulin [7]; 0.5 μM inhibitor): 84 ± 3%
pEC50 (cellular microtubules [5]): 8.01

COc1ccc(Nc2nc(Cl)nc3cnn(C)c23)cc1 [Compound 10]
Inhibition of [3H]colchicine binding, in words (tubulin [7]): completely inactive
Inhibition of tubulin assembly, in words (tubulin [1]): did not inhibit tubulin assembly; also recorded: no effect
pIC50 (tubulin [1]; read-out: Inhibition of tubulin assembly IC50 ± SD): < 4.70

— PMC8113149 (Bioorganic & medicinal chemistry letters, 2021)
